# Measured values taken from publication PMC3204160 (Journal of natural products, 2011).
# Like-named read-outs stand apart in the source and are kept apart here.
# Experiments:
# recombinant human HDAC7 = molecular target: T1, recombinant human HDAC7 (Homo sapiens, UniProt Q8WUI4); assay: biochemical
# T1 sequence (Q8WUI4 1-952): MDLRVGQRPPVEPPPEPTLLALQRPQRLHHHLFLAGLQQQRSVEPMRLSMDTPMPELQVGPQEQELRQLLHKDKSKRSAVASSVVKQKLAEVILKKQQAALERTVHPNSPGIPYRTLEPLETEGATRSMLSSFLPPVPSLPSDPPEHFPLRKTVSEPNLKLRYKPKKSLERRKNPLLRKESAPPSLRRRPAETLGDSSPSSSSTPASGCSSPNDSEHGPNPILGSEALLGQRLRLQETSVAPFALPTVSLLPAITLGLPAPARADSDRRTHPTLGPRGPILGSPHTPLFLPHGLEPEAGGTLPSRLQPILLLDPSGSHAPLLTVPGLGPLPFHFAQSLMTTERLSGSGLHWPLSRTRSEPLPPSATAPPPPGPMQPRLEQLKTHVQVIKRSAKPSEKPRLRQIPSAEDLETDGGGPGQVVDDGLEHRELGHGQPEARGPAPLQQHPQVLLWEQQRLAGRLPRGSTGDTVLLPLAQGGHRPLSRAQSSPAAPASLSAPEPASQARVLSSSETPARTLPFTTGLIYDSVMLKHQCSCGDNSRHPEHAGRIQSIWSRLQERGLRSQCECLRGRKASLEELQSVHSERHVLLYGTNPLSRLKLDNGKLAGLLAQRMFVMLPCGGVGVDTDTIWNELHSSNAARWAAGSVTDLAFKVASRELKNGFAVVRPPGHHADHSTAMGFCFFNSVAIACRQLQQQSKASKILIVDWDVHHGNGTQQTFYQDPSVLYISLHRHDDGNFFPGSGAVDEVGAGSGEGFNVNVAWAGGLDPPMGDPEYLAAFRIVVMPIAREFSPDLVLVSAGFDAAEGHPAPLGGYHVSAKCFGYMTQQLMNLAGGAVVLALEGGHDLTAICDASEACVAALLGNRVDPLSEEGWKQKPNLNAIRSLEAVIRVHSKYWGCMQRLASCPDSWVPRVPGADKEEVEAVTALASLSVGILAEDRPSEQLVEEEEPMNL
# recombinant human HDAC1 = recombinant human HDAC1 (Homo sapiens, UniProt Q13547); assay: Two-step fluorogenic HDAC inhibition assay, HDAC1; format: biochemical; details: for times less active against HDAC1 than against HDAC3/N-CoR2: natural/oxidized prodrug form, range given for HDAC1 and HDAC2 together
# Sequence of recombinant human HDAC1 (Q13547 whole entry): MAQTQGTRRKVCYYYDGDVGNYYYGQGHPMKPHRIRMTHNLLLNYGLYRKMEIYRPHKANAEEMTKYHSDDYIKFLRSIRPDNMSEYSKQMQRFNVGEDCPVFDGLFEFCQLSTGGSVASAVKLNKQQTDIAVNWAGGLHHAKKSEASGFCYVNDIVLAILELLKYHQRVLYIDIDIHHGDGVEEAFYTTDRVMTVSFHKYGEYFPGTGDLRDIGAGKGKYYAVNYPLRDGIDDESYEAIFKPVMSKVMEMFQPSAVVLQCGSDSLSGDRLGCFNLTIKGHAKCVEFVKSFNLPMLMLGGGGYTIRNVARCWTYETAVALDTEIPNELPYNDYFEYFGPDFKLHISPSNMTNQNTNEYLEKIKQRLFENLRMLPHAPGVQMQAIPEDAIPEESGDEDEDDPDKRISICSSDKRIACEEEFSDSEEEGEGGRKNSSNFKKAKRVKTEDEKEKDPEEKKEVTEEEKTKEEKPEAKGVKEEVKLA
# recombinant human HDAC2 = recombinant human HDAC2 (Homo sapiens, UniProt Q92769); assay: Two-step fluorogenic HDAC inhibition assay, HDAC2; format: biochemical; details: for times less active against HDAC2 than against HDAC3/N-CoR2: natural/oxidized prodrug form, range given for HDAC1 and HDAC2 together
# Sequence of recombinant human HDAC2 (Q92769 whole entry): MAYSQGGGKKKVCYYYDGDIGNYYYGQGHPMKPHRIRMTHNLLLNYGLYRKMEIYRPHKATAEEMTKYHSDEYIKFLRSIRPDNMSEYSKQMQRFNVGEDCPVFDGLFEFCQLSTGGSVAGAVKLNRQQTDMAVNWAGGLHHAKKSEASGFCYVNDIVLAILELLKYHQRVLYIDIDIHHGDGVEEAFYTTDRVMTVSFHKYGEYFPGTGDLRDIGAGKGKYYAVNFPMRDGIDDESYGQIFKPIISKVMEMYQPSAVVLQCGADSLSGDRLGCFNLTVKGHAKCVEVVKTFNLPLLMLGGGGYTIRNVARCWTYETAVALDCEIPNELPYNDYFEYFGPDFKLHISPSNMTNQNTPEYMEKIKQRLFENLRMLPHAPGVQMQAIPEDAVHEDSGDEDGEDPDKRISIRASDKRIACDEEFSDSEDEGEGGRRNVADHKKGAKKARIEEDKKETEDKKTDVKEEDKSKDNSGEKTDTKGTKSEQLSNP
# recombinant human HDAC4 = recombinant human HDAC4 (Homo sapiens, UniProt P56524); assay: biochemical; format: biochemical
# Sequence of recombinant human HDAC4 (P56524 whole entry): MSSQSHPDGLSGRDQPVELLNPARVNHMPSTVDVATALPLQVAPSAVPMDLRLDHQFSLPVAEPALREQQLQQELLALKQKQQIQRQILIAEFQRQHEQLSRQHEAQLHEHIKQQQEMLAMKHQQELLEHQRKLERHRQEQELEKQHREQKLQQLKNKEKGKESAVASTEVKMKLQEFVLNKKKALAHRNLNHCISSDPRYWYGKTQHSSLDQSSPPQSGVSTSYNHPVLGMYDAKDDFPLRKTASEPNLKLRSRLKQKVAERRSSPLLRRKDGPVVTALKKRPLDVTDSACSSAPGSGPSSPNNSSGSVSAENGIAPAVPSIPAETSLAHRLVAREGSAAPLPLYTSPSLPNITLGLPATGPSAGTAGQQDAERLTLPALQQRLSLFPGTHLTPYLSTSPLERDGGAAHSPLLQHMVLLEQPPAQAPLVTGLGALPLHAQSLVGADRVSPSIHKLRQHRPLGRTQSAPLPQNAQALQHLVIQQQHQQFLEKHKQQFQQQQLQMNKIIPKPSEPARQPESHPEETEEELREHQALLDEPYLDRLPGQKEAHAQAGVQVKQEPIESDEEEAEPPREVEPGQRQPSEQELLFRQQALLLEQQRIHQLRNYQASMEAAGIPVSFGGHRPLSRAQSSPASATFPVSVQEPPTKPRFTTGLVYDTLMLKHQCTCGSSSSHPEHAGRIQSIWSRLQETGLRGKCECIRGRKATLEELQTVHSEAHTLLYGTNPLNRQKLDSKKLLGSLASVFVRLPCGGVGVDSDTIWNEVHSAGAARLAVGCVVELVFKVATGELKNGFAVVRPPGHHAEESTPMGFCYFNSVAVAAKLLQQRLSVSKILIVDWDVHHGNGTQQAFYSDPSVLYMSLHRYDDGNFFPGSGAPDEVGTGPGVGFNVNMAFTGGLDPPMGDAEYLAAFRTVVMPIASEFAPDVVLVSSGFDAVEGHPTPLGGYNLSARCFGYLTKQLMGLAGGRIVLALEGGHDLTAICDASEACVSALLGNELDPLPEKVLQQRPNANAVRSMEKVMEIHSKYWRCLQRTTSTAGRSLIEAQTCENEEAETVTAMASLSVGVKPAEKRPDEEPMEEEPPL
# recombinant human HDAC6 = molecular target: T2, recombinant human HDAC6 (Homo sapiens, UniProt Q9UBN7); assay: biochemical; format: biochemical; details: for potency towards HDAC6, times less than to HDAC1–3: reduced form
# T2 sequence (Q9UBN7 1-1215): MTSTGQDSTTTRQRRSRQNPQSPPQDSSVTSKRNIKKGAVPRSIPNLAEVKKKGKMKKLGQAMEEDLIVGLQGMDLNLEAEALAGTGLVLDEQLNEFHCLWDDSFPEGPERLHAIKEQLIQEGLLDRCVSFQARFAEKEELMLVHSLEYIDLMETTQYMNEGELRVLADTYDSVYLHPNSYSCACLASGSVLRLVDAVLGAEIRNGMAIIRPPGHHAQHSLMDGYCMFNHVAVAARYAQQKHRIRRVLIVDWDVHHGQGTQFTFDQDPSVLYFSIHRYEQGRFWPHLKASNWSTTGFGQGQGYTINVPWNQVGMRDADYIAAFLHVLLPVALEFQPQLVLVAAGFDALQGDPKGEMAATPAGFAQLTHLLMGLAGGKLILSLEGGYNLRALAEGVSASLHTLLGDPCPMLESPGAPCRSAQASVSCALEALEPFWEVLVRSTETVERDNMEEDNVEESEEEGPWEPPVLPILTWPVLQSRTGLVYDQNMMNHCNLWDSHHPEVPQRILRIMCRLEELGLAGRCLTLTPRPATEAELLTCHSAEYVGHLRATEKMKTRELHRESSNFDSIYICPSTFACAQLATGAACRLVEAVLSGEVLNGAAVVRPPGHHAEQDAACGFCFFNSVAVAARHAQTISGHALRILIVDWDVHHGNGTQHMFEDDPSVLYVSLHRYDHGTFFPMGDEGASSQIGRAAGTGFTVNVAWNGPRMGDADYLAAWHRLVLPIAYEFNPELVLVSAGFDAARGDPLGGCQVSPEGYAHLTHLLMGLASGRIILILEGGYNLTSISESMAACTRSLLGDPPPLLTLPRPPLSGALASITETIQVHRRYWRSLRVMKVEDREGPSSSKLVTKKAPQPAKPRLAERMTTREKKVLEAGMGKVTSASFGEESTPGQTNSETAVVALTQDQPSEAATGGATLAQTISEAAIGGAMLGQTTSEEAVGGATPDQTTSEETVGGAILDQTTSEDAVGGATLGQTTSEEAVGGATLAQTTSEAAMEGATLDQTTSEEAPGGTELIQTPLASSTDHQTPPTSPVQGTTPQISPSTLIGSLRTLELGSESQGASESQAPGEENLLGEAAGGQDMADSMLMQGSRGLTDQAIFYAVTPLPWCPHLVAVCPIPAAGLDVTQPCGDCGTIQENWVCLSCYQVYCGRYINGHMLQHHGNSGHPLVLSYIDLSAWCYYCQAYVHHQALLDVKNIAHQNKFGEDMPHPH
# [1] = molecular target: HDAC3 (in complex with N-CoR2) (Homo sapiens, UniProt O15379); assay: biochemical
# Sequence of HDAC3 (in complex with N-CoR2) (O15379 whole entry): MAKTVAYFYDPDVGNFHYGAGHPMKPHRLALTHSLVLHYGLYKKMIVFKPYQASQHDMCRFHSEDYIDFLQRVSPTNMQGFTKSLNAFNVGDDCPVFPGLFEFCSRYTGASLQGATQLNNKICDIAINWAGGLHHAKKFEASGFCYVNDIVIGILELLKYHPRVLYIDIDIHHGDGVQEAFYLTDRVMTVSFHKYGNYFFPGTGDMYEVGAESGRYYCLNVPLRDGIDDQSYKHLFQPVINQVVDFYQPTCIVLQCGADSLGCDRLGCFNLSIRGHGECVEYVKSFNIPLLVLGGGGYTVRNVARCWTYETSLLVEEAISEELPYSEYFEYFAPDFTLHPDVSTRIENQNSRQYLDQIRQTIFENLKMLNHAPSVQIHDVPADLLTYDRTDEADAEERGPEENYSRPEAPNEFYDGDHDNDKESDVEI
# Sequence of HDAC3 (in complex with N-CoR2) (Q9Y618 395-489 partner limits assumed): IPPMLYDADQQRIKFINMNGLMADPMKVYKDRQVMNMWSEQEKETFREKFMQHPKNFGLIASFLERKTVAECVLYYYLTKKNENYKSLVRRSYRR
# [2] = system: NCI-60 human cancer cell lines; assay: NCI-60 anticancer drug screen and COMPARE analysis; format: cell-based; details: for over 90% of the tested NCI-60 cell lines; five concentrations 10^−4 to 10^−8 M
# recombinant human HDAC8 = molecular target: T3, recombinant human HDAC8 (Homo sapiens, UniProt Q9BY41); assay: biochemical; format: biochemical
# T3 sequence (Q9BY41 1-377): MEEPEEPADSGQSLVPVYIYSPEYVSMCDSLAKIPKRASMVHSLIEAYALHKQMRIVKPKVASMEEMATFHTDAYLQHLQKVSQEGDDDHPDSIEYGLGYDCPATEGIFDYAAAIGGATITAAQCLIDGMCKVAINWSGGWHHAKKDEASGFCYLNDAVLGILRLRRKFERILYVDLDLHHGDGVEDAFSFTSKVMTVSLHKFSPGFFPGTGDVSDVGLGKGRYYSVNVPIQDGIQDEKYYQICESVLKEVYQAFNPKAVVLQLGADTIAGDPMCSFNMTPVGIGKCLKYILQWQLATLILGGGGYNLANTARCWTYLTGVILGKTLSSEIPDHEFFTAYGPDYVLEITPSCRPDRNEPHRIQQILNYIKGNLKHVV
# recombinant human HDAC9 = recombinant human HDAC9 (Homo sapiens, UniProt Q9UKV0); assay: biochemical
# Sequence of recombinant human HDAC9 (Q9UKV0 whole entry): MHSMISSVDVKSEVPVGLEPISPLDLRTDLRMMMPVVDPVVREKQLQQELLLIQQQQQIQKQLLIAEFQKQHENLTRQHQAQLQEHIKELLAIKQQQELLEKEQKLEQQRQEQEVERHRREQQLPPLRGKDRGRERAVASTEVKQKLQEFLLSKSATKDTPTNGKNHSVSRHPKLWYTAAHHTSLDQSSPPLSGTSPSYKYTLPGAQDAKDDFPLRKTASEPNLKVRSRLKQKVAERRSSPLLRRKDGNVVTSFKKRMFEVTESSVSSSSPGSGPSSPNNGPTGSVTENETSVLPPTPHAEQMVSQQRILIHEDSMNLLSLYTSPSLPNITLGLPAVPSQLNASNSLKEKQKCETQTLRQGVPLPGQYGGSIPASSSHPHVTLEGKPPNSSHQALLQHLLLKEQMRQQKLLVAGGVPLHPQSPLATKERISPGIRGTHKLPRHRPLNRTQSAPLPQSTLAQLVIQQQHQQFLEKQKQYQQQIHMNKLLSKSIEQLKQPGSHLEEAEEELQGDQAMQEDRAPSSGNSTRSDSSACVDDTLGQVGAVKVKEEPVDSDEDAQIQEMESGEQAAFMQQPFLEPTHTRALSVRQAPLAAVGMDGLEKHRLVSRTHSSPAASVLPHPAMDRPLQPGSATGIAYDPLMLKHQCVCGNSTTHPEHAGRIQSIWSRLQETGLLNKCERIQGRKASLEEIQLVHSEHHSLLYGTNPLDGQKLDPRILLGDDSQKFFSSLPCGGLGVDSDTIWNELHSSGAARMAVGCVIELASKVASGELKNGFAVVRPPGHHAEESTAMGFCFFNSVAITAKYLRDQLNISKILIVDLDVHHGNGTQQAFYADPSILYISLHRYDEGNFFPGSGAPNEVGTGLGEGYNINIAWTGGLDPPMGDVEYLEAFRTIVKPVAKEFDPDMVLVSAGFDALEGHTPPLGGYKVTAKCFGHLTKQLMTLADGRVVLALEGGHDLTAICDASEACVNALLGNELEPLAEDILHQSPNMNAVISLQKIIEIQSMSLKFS
SMILES,IC50 (recombinant human HDAC7) [nM],IC50 (recombinant human HDAC1) [nM],times less active against HDAC1 than against HDAC3/N-CoR2 (recombinant human HDAC1),times less active against HDAC2 than against HDAC3/N-CoR2 (recombinant human HDAC2),IC50 (recombinant human HDAC4) [nM],"potency towards HDAC6, times less than to HDAC1–3 (recombinant human HDAC6)",IC50 (recombinant human HDAC2) [nM],IC50 [1] [nM],GI50 (growth inhibition) [2],fold less potent against HDAC4 than 2* (recombinant human HDAC4),IC50 (recombinant human HDAC8) [nM],fold less potent against HDAC8 than 2* (recombinant human HDAC8),"inhibition of HDAC8, times weaker than the inhibition of HDAC1–3 (recombinant human HDAC8)",IC50 (recombinant human HDAC6) [nM],IC50 (recombinant human HDAC9) [nM],"inhibition of HDAC8, times weaker than the inhibition of HDAC1–3 (recombinant human HDAC8; reduced form)"
"C/C=C1\NC(=O)[C@H]2CSSCC/C=C/[C@H](CC(=O)N[C@H](C(C)C)C(=O)N2)OC(=O)[C@H](C(C)C)NC1=O [Compound 2, FK228, reference compound]",3200,5.3,80–450 times,80–450 times,470,30–100 times,,,,,,,,,,
"CC[C@H](C)[C@H]1NC(=O)[C@H]2CSSCC/C=C/[C@H](CC(=O)N[C@H](CCSC)C(=O)N2)OC(=O)C[C@@H]1O [Compound 6, thailandepsin A]",11000,14,80–450 times,80–450 times,42000,30–100 times,3.5,4.8,low nanomolar concentrations,40–90 fold,1200,40–90 fold,80–350 times,380,12000,
"CCCC[C@H]1NC(=O)C[C@H]2/C=C/CCSSC[C@@H](NC1=O)C(=O)N[C@H]([C@@H](C)CC)[C@@H](O)CC(=O)O2 [Compound 7, thailandepsin B]",,,80–450 times,80–450 times,,30–100 times,,,low nanomolar concentrations,,,,,,,80–350 times
